In US20100063155A1, “N-(3-PHENYLPROPYL)BENZAMIDE DERIVATIVES” (priority 2007, published 2010) one finds protection data, which are given here for 1 compound.

This assay relates to Alternaria brassicae. Nature of the assay: In vivo test on Alternaria brassicae (leaf spot of crucifers). Conditions: 500 ppm, preventive spray on radish plants (Pernot variety), contaminated after 24 hours, grading 6 to 7 days after contamination vs control plants. The procedure: The active ingredients tested are prepared by potter homogenisation in a mixture of acetone/tween/water. This suspension is then diluted with water to obtain the desired active material concentration.
Radish plants (Pernot variety), sown on a 50/50 peat soil-pozzolana substrate in starter cups and grown at 18-20° C., are treated at the cotyledon stage by spraying with the active ingredient prepared as described above.
Plants, used as controls, are treated with the mixture of acetone/tween/water not containing the active material.
After 24 hours, the plants are contaminated by spraying them with an aqueous suspension of Alternaria brassicae spores (40,000 spores per cm^3). The spores are collected from a 12 to 13 days-old culture.
The contaminated radish plants are incubated for 6-7 days at about 18° C., under a humid atmosphere.
Grading is carried out 6 to 7 days after the contamination, in comparison with the control plants.

Turning to `O=C(NCCCc1ccc(Cl)cc1Cl)c1ccccc1C(F)(F)F` [Compound 1, N-[3-(2,4-dichlorophenyl)propyl]-2-(trifluoromethyl)benzamide], the protection result is reported as “at least 70%”.
